Legend:
[1] = tested on: stretchings provoked by intraperitoneal injection of acetic acid to mice; test: Analgesic activity, acetic acid stretching (writhing) test in mice (Koster et al); assay type: in vivo; conditions: Mus musculus, oral, 30 minutes before acetic acid injection (100 mg/kg i.p.), stretchings totaled over 15 minutes, read-out: DA50, dose which reduced by 50% the number of stretchings as compared to the controls
Protocol: The test was based on that of Koster et al [Fed. Proc., Vol. 18 (1959), p. 412] in which the intraperitoneal injection of acetic acid to mice provokes repeated stretching and twisting movements which persist for more than 6 hours. Analgesics prevent or suspress these syndromes which are considered to be an exteriorization of a diffuse abdominal pain. A 1% solution of acetic acid in water was used at a dose of 0.01 ml/g or 100 mg/kg of acetic acid to release the syndrome.
The test product was orally administered 30 minutes before the acetic acid injection and the mice were fasted for 24 hours before the start of the test. The stretchings for the mice were observed and totaled for each mouse in a 15 minutes observation period starting just after the acetic acid injection. The results were expressed as DA50, that dose which reduced by 50% the number of stretchings as compared to the controls and the DA50 for N-[2-thiazolyl]-4-hydroxy-8 -trifluoromethyl-3-quinoline-carboxamide was 5 mg/kg; for N-[2 -thiazolyl]-4-hydroxy-8-chloro-3-quinoline-carboxamide was 4 mg/kg; and for N-[2-thiazolyl]-4-hydroxy-7-trifluoromethyl- 3-quinoline-carboxamide was 7 mg/kg.

[2] = Acute toxicity in mice, intraperitoneal; conditions: mouse, in vivo, ip, observed for a week, graphically determined by Miller et al method, read-out: DL50
Protocol: The acute toxicity was determined on groups of 10 mice weighing between 18-22 g and the test product was administered intraperitoneally in increasing dose in suspensions at 0.25 % in carboxymethyl-cellulose added of Tween 80.

mice = conditions: mouse, in vivo, po, 500 mg/kg

Row | SMILES | ED50 [1] [mg/kg] | LD50 at 168 h [2] [mg/kg] | tolerance when orally administered (mice)
1 | O=C(Nc1nccs1)c1cnc2cc(C(F)(F)F)ccc2c1O [N-[2-thiazolyl]-4-hydroxy-7-trifluoromethyl-3-quinoline-carboxamide] | 7 |  | 
2 | O=C(Nc1nccs1)c1cnc2c(Cl)cccc2c1O [N-[2-thiazolyl]-4-hydroxy-8-chloro-3-quinoline-carboxamide] | 4 |  | 
3 | O=C(Nc1nccs1)c1cnc2c(C(F)(F)F)cccc2c1O [N-[2-thiazolyl]-4-hydroxy-8-trifluoromethyl-3-quinoline-carboxamide] | 5 | 225 | very well tolerated
